We go through 1 molecule from US12690587B2, “Animal and insect repellent and method of its use” (Cranberry IP, LLC, priority 2023, dated 2026).

The subject of the test is white tail deer. Kind of test: 12-month field test of repellent at twenty-one monitored test sites (tracks and browsing damage). As to conditions: within 60-day application periods; regular and consistent use. The format is in vivo, Odocoileus virginianus. As to the method: The performance of repellent composition of the present invention was evaluated by the inventor of the present invention in a study that lasted for approximately one year using twenty-one monitored test sites to field test the effectiveness of the composition that included butyl lactate. These sites each had three monitored areas: formulation with butyl lactate (1), same formulation without butyl lactate (2), and control (3), each approximately 100-200 square feet in size. Due to the proximity of the sites, the range of climates, food sources and types of species were consistent, making it easy to assess the repellent's effectiveness, which was evaluated by means of visual inspections and rating for animal tracks around and in the areas, and browsing damage to the plant material.

As for `CCCCOC(=O)C(C)O` (stereo not shown) [Butyl lactate], the “duration of decreased white tail deer damage, presence and entry into treated areas” value is “more than 30 days”.
